Test results: a melting point compilation (Tetko et al.)

| SMILES | melting point [°C] |
| --- | --- |
| Nc1ccc(N)nc1 | 110 |
| O=C(NN=Cc1ccc([N+](=O)[O-])o1)c1ccc(O)cc1 | 298 |
| C=C1C(=O)OC2C1CCC(C)C1C=CC(=O)C12C (configuration not stated) | 146 |
| Cc1ccc2cnn(C)c2n1 | 184 |
| CCCCCCCCC(=O)OC(=O)CCCCCCCC | 14.8 |
| CCC(C=C1C(=O)C2(C)CCC1C2(C)C)C(=O)O (configuration not stated) | 118 |
| COC(=O)c1sc(-c2ccc(C(C)(C)C)cc2)cc1N | 156 to 157 |
| CC1=NN(c2ccccc2)C(=O)C1=C(Br)C1C(=O)N(c2ccccc2)N=C1C (configuration not stated) | 218 to 219 |
| CC1(C)NC(=CC(=O)c2ccccc2)C(C)(C)N1O | 178 to 184 |
| CSc1nc(N)nc(-c2cc(Cl)cc(Cl)c2)n1 | 214 to 216 |
| O=C(O)CNC(=O)c1ccccc1 | 222 |
| Nc1nnc(Br)s1 | 168 to 169 |
| CC(=O)N(c1ccccc1)c1nc(CCl)cs1 | 113 to 115 |
| CC(C)=CCCC(C)=CCO | 50 |
| Brc1ccc(Cn2ccnc2)cc1 | 75 to 80 |
| SC1=NNC(c2ccccn2)S1 (configuration not stated) | 114 to 116 |
| CCC1CN2CCC1CC2C(O)c1ccnc2ccccc12 (configuration not stated) | 268 |
| CC1CCCC(C)C1 (configuration not stated) | -90.1 |
| CC1CCC(C)(C(=O)CN(C)C(=S)Nc2ccccc2)C1(C)C (configuration not stated) | 147 |
| c1ccc(-c2cn3c(n2)SCC3)cc1 | 147 to 148 |
| O=C(O)C(O)C(O)C(=O)Nc1ccc(Cl)cc1 (single isomer, unassigned; (+)) | 193 to 195 |
| CN(C)c1ccc(C2CC(c3ccc4ccccc4c3)=NN2c2ccccc2)cc1 (configuration not stated) | 186 |

| SMILES | melting point [°C] |
| --- | --- |
| CC(C)(S)C(N)C(=O)O (configuration not stated) | 212 |
| O=C(CCCN1CCC(O)(c2ccc(Br)cc2)CC1)c1ccc(F)cc1 | 155 |
| Oc1cc(Br)ccc1Cl | 57 |
| CC(=O)OC1CCC2C3CCC4CC5(CCC4(C)C3CCC12C)OCCO5 (configuration not stated) | 144 |
| NC(Cc1cc(F)cc(F)c1)C(=O)O (racemic) | 243 to 245 |
| C/C(=N\c1cccc(C(=O)O)c1)c1c(O)c2ccccc2n(-c2ccccc2)c1=O | 242 to 243 |
| Nc1nnc(-c2ccc([N+](=O)[O-])cc2)s1 | 202 to 204 |
| CCOC(=O)C=Cc1ccc(C=CC(=O)OCC)c(N)c1 | 178 |
| Cc1cc(C(=O)O)n(C)n1 | 209 to 211 |
| CN(C(=S)C(=O)c1ccccc1)c1ccccc1 | 109 |
| O=C1C=CC(=O)N1c1cccc(N2C(=O)C=CC2=O)c1 | 198 to 204 |
| O=[N+]([O-])c1c(O)c(Cl)cc(Cl)c1Cl | 92.5 |
| Cc1cc2cc([N+](=O)[O-])ccc2[nH]1 | 173 to 178 |
| CCC(C)(Cl)Cl | -74 |
| OCc1cccc2[nH]ccc12 | 67 to 68 |
| C=CCSc1nnc(-c2cc(Br)cc(Br)c2O)n1N | 162 |
| Nc1ccc2[nH]nnc2c1 | 160 |
| N#CCCN(CCC#N)c1ccccc1 | 80 to 88 |
| CC(=O)Nc1c(C)ccc2c1C(=O)c1ccccc1C2=O | 133 |
| COC(=O)c1ccc(OC)cc1O | 49 to 53 |
| O=C(N=Nc1ccccc1)NNc1ccccc1 | 153 to 157 |
| O=C1CC(C(=O)OCc2ccccc2)N1 (configuration not stated) | 137 to 138 |

| SMILES | melting point [°C] |
| --- | --- |
| NC(=NO)c1cccc(Cl)c1 | 115 to 117 |
| Cc1noc(-c2ccc(C(=O)O)cc2)n1 | 267 to 269 |
| CCCCCCCCC(=O)Oc1ccc(/N=N/c2ccc(CCCC)cc2)cc1 | 50 to 53 |
| O=[N+]([O-])c1cc(-c2ccccc2)ccc1O | 67 |
| COc1cc(OC)c(C#N)c(OC)c1 | 142 to 145 |
| COC(=O)c1cccoc1=O | 76 |
| O=C1CCCc2c1nc(-c1ccccc1)n2O | 247 to 257 |
| CSc1nc2cc(N=Cc3ccc(F)cc3)ccc2[nH]1 | 174 to 175 |
| COC(=O)c1ccc(S(=O)(=O)NC(C)(C)C)n1C | 104 to 105 |
| O=C(O)C12CC3CC(CC(Cl)(C3)C1)C2 | 136 to 140 |
| Clc1ccc2c(c1)Oc1cc(Cl)c(Cl)c(Cl)c1O2 | 172 |
| O=C1OC(=O)C2Cc3ccccc3CC12 (configuration not stated) | 188 |
| Nc1ccc2c(C(F)(F)F)cc(=O)oc2c1 | 223 |
| CN1CCN(C2=Nc3ccccc3Cc3ccccc32)CC1 | 137 |
| CC(=O)Nc1cc(N)c(C=Cc2ccccc2)cc1/C=C/c1ccccc1 | 218 |
| CC(=O)N[C@@H](CC(C)C)C(=O)O | 178 |
| Cc1cc(CC(C)CC(C)(C)C)n(O)c(=O)c1 (configuration not stated) | 108 |
| Cc1nn(C)c(Cl)c1C(=O)O | 195 to 198 |
| Cn1nc(-c2cc(OCC(=O)O)c(Cl)cc2F)c(Cl)c1OC(F)F | 126 |
| Cc1cc(C)c2c(=O)[nH]n(C)c2n1 | 216 |
| O=[N+]([O-])c1ccc(OC(F)F)cc1 | 34 |
| CCCCC(=O)NC | -26 |

| SMILES | melting point [°C] |
| --- | --- |
| Cc1nc2nn(C)cc2c(=O)n1N | 147 to 148 |
| N#CC(C=O)c1ccc(Cl)cc1 (configuration not stated) | 157 |
| O=C(O)c1c(-c2ccccc2)nnc2ccccc12 | 216 |
| NC(=S)NC(N)=S | 181 to 183 |
| CCCC(O)(CCC)C1(C)CCC(C(=O)O)C(C)(C)O1 (configuration not stated) | 111 to 112 |
| CCOC(=O)CSc1c(C)[nH]c2ccccc12 | 72 to 75 |
| Brc1cccc2ncccc12 | 46 |
| O=Cc1ccc(N2CCOCC2)c([N+](=O)[O-])c1 | 53 to 55 |
| Cc1nc(-c2cc(C(=O)Cl)no2)cs1 | 89 to 91 |
| COc1cc([N+](=O)[O-])ccc1N1CCCC1 | 60 |
| C=CC(=O)Nc1ccc2c(c1)OCCOCCOCCOCCOCCO2 | 108 to 112 |
| CCCCCCCCCCCC(O)CC (configuration not stated) | 31.5 |
| COc1ccc(OC)c2c1CC2=O | 105 |
| O=P(OC(CCl)CCl)(OC(CCl)CCl)OC(CCl)CCl | 27 |
| CC(=O)C(C)=NO | 76.8 |
| Cc1c(-c2ccccc2)oc2c(C(=O)O)cccc2c1=O | 235 |
| N#Cc1ccc(OC2CCOCC2)nc1 | 134 to 135 |
| Nc1cccc(C=O)c1 | 30 |
| COc1cc([N+](=O)[O-])c2ncccc2c1 | 159 |
| NC(CSCc1ccccc1)C(=O)Nc1ccc([N+](=O)[O-])cc1 (configuration not stated) | 100 to 102 |
| CCCc1ccc(-c2ccccc2)cc1 | 15 to 17 |
| O=C(O)c1cc(Cl)nc(Cl)c1 | 210 to 211 |

| SMILES | melting point [°C] |
| --- | --- |
| O=[N+]([O-])c1cccc2ncccc12 | 74 |
| CCCCC1C(=O)N(c2ccccc2)N(c2ccc(O)cc2)C1=O (configuration not stated) | 124 |
| FC(F)(F)C(F)(F)C(F)(F)C(F)(F)C(F)(F)C(F)(F)OC(F)(F)C(F)(F)C(F)(F)C(F)(F)C(F)(F)C(F)(F)F | -90 |
| CC(C)(C)c1cc(N)cc(C(C)(C)C)c1 | 56 |
| Cc1ccc(C2(C(=O)O)CCCC2)cc1 | 181 to 184 |
| CCCCCCCC=O | 12.5 |
| CS(=O)(=O)c1ccc(C=O)cc1 | 155 to 161 |
| CNC(=O)ON=C(CSC)C(C)(C)C | 57 |
| O=C(O)c1cccnc1Br | 254 |
| C=CC[C@H](N)C(=O)O | 253 to 255 |
| Cc1nc(-c2ccccc2)ncc1C=O | 101 to 103 |
| O=S(=O)(Cl)c1ccc(-c2ccccn2)s1 | 87 to 89 |
| O=[N+]([O-])c1cc(C(F)F)c(Nc2ncc(C(F)(F)F)cc2Cl)c([N+](=O)[O-])c1 | 90 |
| COc1ccc2nc(C#N)sc2c1 | 128 to 131 |
| COc1cc(Br)c(CC#N)cc1OC | 87 to 89 |
| CC(=O)N1C(=O)[C@@](O)([C@H]2c3ccccc3O[C@@H]2Cl)c2ccccc21 | 133 |
| CCCC(O)C(O)(CC)C1CCCCC1 (configuration not stated) | 78 |
| S=c1nnc(-c2ccccc2)c(Nc2ccc(Br)cc2)[nH]1 | 359 |
| c1ccc2cc3c(cc2c1)oc1ccccc13 | 202 to 207 |
| BrCc1cccc(-c2cccs2)c1 | 57 |
| Cn1ncc(Br)c1NC(=O)CCl | 137 to 139 |
| CCC(=C(CC)c1ccc(OC)cc1)c1ccc(OC)cc1 | 124 |

| SMILES | melting point [°C] |
| --- | --- |
| COc1cc(C(=O)c2ccc(-c3ccccc3)cc2)c([N+](=O)[O-])cc1OC | 144 to 145 |
| Cc1cnc(NS(=O)(=O)c2ccc(N)cc2)nc1 | 262 |
| COC(=O)c1ccc(Br)o1 | 64 |
| CC1=NC(=Cc2cccc3ccccc23)C(=O)O1 | 244 |
| Cn1c(=O)c2c(ncn2CCO)n(C)c1=O | 158 |
| CC(=O)c1ccc(Cl)s1 | 49 |
| CCOC(=O)C=Cc1ccccc1N | 76 to 77 |
| Cc1cccc2c1ccc1ccccc12 | 123 |
| CC(C)C1C(=O)NC(=O)NC1=O | 214 |
| Cc1ccc(CC=O)cc1 | 40 |
| Cc1cccc2ccoc12 | 109 |
| CC(C)(C)OC(=O)N1CCN(c2cc(C#N)ccn2)CC1 | 127 to 129 |
| O=C(O)c1ccc(C(=O)O)c(OC(F)(F)F)c1 | 270 to 272 |
| CC=CC1=C(C(=O)O)N2C(=O)C(NC(=O)C(N)c3ccc(O)cc3)C2SC1 (configuration not stated) | 222 |
| O=C(O)C(O)c1ccc(C(F)(F)F)cc1 (configuration not stated) | 130 to 134 |
| CCOC(=O)CC(=O)c1cc(F)c(Cl)nc1Cl | 68 to 72 |
| NC(=O)NC(=O)Cc1ccccc1 | 215 |
| Cc1cc(Br)c(N)c(Br)c1 | 74 |
| CN1C(=C(O)Nc2ccccn2)C(=O)c2sccc2S1(=O)=O | 211 |
| O=C(C=Cc1ccc(Cl)cc1)c1ccc(Cl)cc1 | 158 |
| ClC(C(Cl)(Cl)Cl)C(Cl)(Cl)Cl | 11 |
| O=C(O)CC1NC(=O)NC1=O (configuration not stated) | 213 to 216 |
